According to ChEMBL document CHEMBL4483862, “Open-source discovery of chemical leads for next-generation chemoprotective antimalarials” (2018):

System: Plasmodium berghei
Test: Luciferase/luciferin-expressing antifolate-resistant parasites were used to infect a culture of HepG2 cells that were pre-incubated with compounds. Infected hepatocytes emit light due to the luciferase reaction. Assay results are presented as the percent inhibition of light emission compared to control. […]
Type: functional
Conditions: sporozoite; for IC90: read-out: LUCIFERASE INFECTION ASSAY - IC90
[1] = read-out: LUCIFERASE INFECTION ASSAY - IC50

Row | SMILES | IC90 | other results
1 | CCN(CC)c1ccc(Nc2nc(-c3c(C)nc4ncccn34)cs2)cc1 | 6.56 µM | IC50 (HEPG2TOX_HILL_SLOPE 1.79, HEPG2TOX_R_SQUARED 0.957, PBLUC_HILL_SLOPE 3.27, PBLUC_R_SQUARED 0.301, read-out: LUCIFERASE INFECTION ASSAY - IC50): 3.35 µM
2 | Cc1cc2c(cc1C)C(NCCc1ccccc1)=NC(C)(C)C2 | 5.1 µM | IC50 (HEPG2TOX_HILL_SLOPE 5.51, HEPG2TOX_R_SQUARED 0.604, PBLUC_HILL_SLOPE 9.09, PBLUC_R_SQUARED 0.396, read-out: LUCIFERASE INFECTION ASSAY - IC50): 4 µM
3 | COc1cc(NC(=O)COC(=O)CNC(=O)C2CCCCC2)cc(OC)c1 | > 10 µM | IC50 [1]: > 10 µM
4 | Oc1cc2[nH]c3ccccc3c2cc1CN1CCN(Cc2cccs2)CC1 | > 10 µM | IC50 (HEPG2TOX_HILL_SLOPE 0.0488, HEPG2TOX_R_SQUARED 0.0234, PBLUC_HILL_SLOPE 24, PBLUC_R_SQUARED 0.263, read-out: LUCIFERASE INFECTION ASSAY - IC50): 9.5 µM
5 | CCNc1nnc(SCc2nc(-c3cccs3)no2)s1 | > 10 µM | IC50 [1]: > 10 µM
6 | COC(=O)c1ccc2c(=O)n(-c3ccccc3)c(SCC3CCCCO3)nc2c1 (stereo not drawn) | > 10 µM | IC50 [1]: > 10 µM
7 | COc1ccc(-c2nn(-c3ccccc3)cc2C(=O)Nc2cc(C(F)(F)F)ccc2N2CCCCC2)cc1 | > 10 µM | IC50 [1]: > 10 µM
8 | C=CCn1c(-c2ccc(Cl)cc2Cl)csc1=Nc1ccc(NC(C)=O)cc1 | 6.44 µM | IC50 (PBLUC_HILL_SLOPE 2.47, PBLUC_R_SQUARED 0.472, read-out: LUCIFERASE INFECTION ASSAY - IC50): 2.64 µM
9 | O=C(NCc1ccccn1)c1ccc2nc3n(c2c1)CCC3 | > 10 µM | IC50 [1]: > 10 µM
10 | Fc1ccc(N2CCN(c3nc(CN4CCOCC4)nc4scc(-c5ccccc5)c34)CC2)cc1 | > 10 µM | IC50 (HEPG2TOX_HILL_SLOPE 0.184, HEPG2TOX_R_SQUARED 0.0625, read-out: LUCIFERASE INFECTION ASSAY - IC50): > 10 µM
11 | Cc1ccc(-c2csc(NC(=O)CCn3ccnc3)n2)c(C)c1 | > 10 µM | IC50 [1]: > 10 µM
12 | O=C(OCC1CCCCC1)c1[nH]nc2ccccc12 | > 10 µM | IC50 [1]: > 10 µM
13 | Cc1ccc(-c2nnc(N/N=C3/C=C(c4ccccc4)C(O)(c4ccccc4)C3)c3ccccc23)cc1C (stereo not drawn) | > 10 µM | IC50 (FFLUC_HILL_SLOPE 18, FFLUC_R_SQUARED 0.659, PBLUC_HILL_SLOPE 2.04, PBLUC_R_SQUARED 0.344, read-out: LUCIFERASE INFECTION ASSAY - IC50): 6.48 µM
14 | O=C(COC(=O)c1c2c(nc3ccccc13)CCCC2)Nc1ccccc1 | > 10 µM | IC50 (HEPG2TOX_HILL_SLOPE 0.267, HEPG2TOX_R_SQUARED 0.55, read-out: LUCIFERASE INFECTION ASSAY - IC50): > 10 µM
15 | Cn1cccc1C(=O)Nc1nc(-c2ccccn2)cs1 | 4.04 µM | IC50 (HEPG2TOX_HILL_SLOPE 2.43, HEPG2TOX_R_SQUARED 0.643, PBLUC_HILL_SLOPE 14.5, PBLUC_R_SQUARED 0.519, read-out: LUCIFERASE INFECTION ASSAY - IC50): 3.47 µM
16 | Cc1cc2n(n1)c(C)cc(C)[n+]2-c1ccccc1 | 4.57 µM | IC50 (FFLUC_HILL_SLOPE 7.82, FFLUC_R_SQUARED 0.313, HEPG2TOX_HILL_SLOPE 3.53, HEPG2TOX_R_SQUARED 0.979, PBLUC_HILL_SLOPE 9.65, PBLUC_R_SQUARED 0.44, read-out: LUCIFERASE INFECTION ASSAY - IC50): 3.64 µM
17 | C/C(=C\c1ccco1)CN1CCc2c(c(C(=O)NCc3ccccn3)nn2CCc2ccccc2)C1 | > 6.85 µM | IC50 [1]: > 6.85 µM
18 | Cc1ccc(-n2c(N(C)C)nc(/C=C(\C#N)C(=O)NC(C)c3ccccc3)c2Cl)cc1 (stereo not drawn) | > 10 µM | IC50 (FFLUC_HILL_SLOPE 1.62, FFLUC_R_SQUARED 0.252, read-out: LUCIFERASE INFECTION ASSAY - IC50): > 10 µM
19 | N#Cc1ccc(/C=C/C(=O)c2cccc3ccccc23)cc1 | 7.94 µM | IC50 (HEPG2TOX_HILL_SLOPE 12.4, HEPG2TOX_R_SQUARED 0.741, PBLUC_HILL_SLOPE 61.7, PBLUC_R_SQUARED 0.602, read-out: LUCIFERASE INFECTION ASSAY - IC50): 7.66 µM
20 | Cc1c(C)n(CCCO)c2ncn3nc(-c4ccc(N(C)C)cc4)nc3c12 | 3.79 µM | IC50 (FFLUC_HILL_SLOPE 0.464, FFLUC_R_SQUARED 0.882, PBLUC_HILL_SLOPE 0.457, PBLUC_R_SQUARED 0.781, read-out: LUCIFERASE INFECTION ASSAY - IC50): 0.0311 µM

Row | SMILES | IC90 | other results
21 | Cc1ccc(C)n1-c1nc2ccc(C(=O)NCC(O)c3ccccc3)cc2s1 (stereo not drawn) | 4.67 µM | IC50 (HEPG2TOX_HILL_SLOPE 1.7, HEPG2TOX_R_SQUARED 0.986, PBLUC_HILL_SLOPE 2.65, PBLUC_R_SQUARED 0.703, read-out: LUCIFERASE INFECTION ASSAY - IC50): 2.04 µM
22 | COc1cccc(NC(=O)N2CCc3nc(NCc4cccc(Oc5ccccc5)c4)ncc3C2)c1 | 3.67 µM | IC50 (HEPG2TOX_HILL_SLOPE 15.7, HEPG2TOX_R_SQUARED 0.806, PBLUC_HILL_SLOPE 104, PBLUC_R_SQUARED 0.398, read-out: LUCIFERASE INFECTION ASSAY - IC50): 3.59 µM
23 | Nc1ncnc(N/N=C/c2ccc(C3=CCCC3)s2)c1[N+](=O)[O-] | > 10 µM | IC50 (FFLUC_HILL_SLOPE 0.804, FFLUC_R_SQUARED 0.918, PBLUC_HILL_SLOPE 0.696, PBLUC_R_SQUARED 0.659, read-out: LUCIFERASE INFECTION ASSAY - IC50): 0.463 µM
24 | Cc1cccc(C)c1-n1nnnc1Sc1nc(CN2CCOCC2)nc2sc(C)c(C)c12 | > 10 µM | IC50 (HEPG2TOX_HILL_SLOPE 14.5, 28.4, HEPG2TOX_R_SQUARED 0.890, 0.649, PBLUC_HILL_SLOPE 85.3, 7.09, PBLUC_R_SQUARED 0.147, 0.386, read-out: LUCIFERASE INFECTION ASSAY - IC50): 8.67 µM
25 | CCN1C(=O)N(Cc2cccc(OC)c2)C(=O)C12CCN(CC(c1ccccc1)c1ccccc1)CC2 | > 6.63 µM | IC50 (PBLUC_HILL_SLOPE 15.1, PBLUC_R_SQUARED 0.228, read-out: LUCIFERASE INFECTION ASSAY - IC50): 6.16 µM
26 | Cc1nc(NCCCCCc2n[nH]c(N)c2C#N)c2c(-c3ccccc3)csc2n1 | 7.48 µM | IC50 (HEPG2TOX_HILL_SLOPE 1.31, HEPG2TOX_R_SQUARED 0.867, PBLUC_HILL_SLOPE 3.24, PBLUC_R_SQUARED 0.486, read-out: LUCIFERASE INFECTION ASSAY - IC50): 3.79 µM
27 | CC(=O)c1cccc(-c2cnc3ccc(-c4cccc(C(N)=O)c4)nn23)c1 | 0.628 µM | IC50 (HEPG2TOX_HILL_SLOPE 1.55, HEPG2TOX_R_SQUARED 0.943, PBLUC_HILL_SLOPE 2.62, PBLUC_R_SQUARED 0.854, read-out: LUCIFERASE INFECTION ASSAY - IC50): 0.271 µM
28 | CCN(C(=O)CSc1nc2ccccc2c(=O)n1-c1ccc(C(C)C)cc1)c1cccc2ccccc12 | 9.59 µM | IC50 (FFLUC_HILL_SLOPE 12.2, FFLUC_R_SQUARED 0.564, PBLUC_HILL_SLOPE 2.95, PBLUC_R_SQUARED 0.421, read-out: LUCIFERASE INFECTION ASSAY - IC50): 4.55 µM
29 | COc1ccc(NC(=O)C(OC(=O)c2ccccc2SCC(=O)Nc2c(C)n(C)n(-c3ccccc3)c2=O)c2ccccc2)cc1Cl (stereo not drawn) | > 10 µM | IC50 [1]: > 10 µM
30 | CCCOc1ccc(C=C(c2nc3ccccc3s2)c2nc3ccccc3s2)c(O)c1 | > 10 µM | IC50 (FFLUC_HILL_SLOPE 30.4, FFLUC_R_SQUARED 0.313, read-out: LUCIFERASE INFECTION ASSAY - IC50): > 10 µM
31 | Cc1cc(C)nc(-n2[nH]c3[nH]c(-c4cccc5ccccc45)cc(=O)c3c2=O)n1 | 1.99 µM | IC50 (HEPG2TOX_HILL_SLOPE 0.872, HEPG2TOX_R_SQUARED 0.686, PBLUC_HILL_SLOPE 1.74, PBLUC_R_SQUARED 0.695, read-out: LUCIFERASE INFECTION ASSAY - IC50): 0.566 µM
32 | COc1cccc(-c2cc(=O)[nH]c(Nc3nc(C)c4cc(C)ccc4n3)n2)c1 | > 8.84 µM | IC50 (HEPG2TOX_HILL_SLOPE 0.454, HEPG2TOX_R_SQUARED 0.693, PBLUC_HILL_SLOPE 1.82, PBLUC_R_SQUARED 0.608, read-out: LUCIFERASE INFECTION ASSAY - IC50): 2.67 µM
33 | O=C(Oc1ccc(/C=N/n2cnnc2)cc1)c1ccco1 | > 10 µM | IC50 (PBLUC_HILL_SLOPE 1.92, PBLUC_R_SQUARED 0.124, read-out: LUCIFERASE INFECTION ASSAY - IC50): > 10 µM
34 | Cc1[nH]c(C(=O)N2CCN(CC3CCCCC3)CC2)c(C)c1C(=O)OC(C)C | > 10 µM | IC50 [1]: > 10 µM
35 | CN1CCN(c2ccc(-c3cn4c(-c5cccc(O)c5)cnc4cn3)cn2)CC1 | > 8.54 µM | IC50 (PBLUC_HILL_SLOPE 4.85, PBLUC_R_SQUARED 0.265, read-out: LUCIFERASE INFECTION ASSAY - IC50): 7.18 µM
36 | Cc1cc(Oc2ccc(NC(=O)Nc3c(-c4c(Cl)cccc4Cl)noc3C)cn2)cc(C)c1Cl | > 6.37 µM | IC50 (FFLUC_HILL_SLOPE 16.7, FFLUC_R_SQUARED 0.348, read-out: LUCIFERASE INFECTION ASSAY - IC50): > 6.37 µM
37 | C=CCn1c2ccccc2c2ccccc21 | > 15.9 µM | IC50 (FFLUC_HILL_SLOPE 10.4, FFLUC_R_SQUARED 0.117, read-out: LUCIFERASE INFECTION ASSAY - IC50): > 15.9 µM
38 | Cc1cc(-c2ccccc2)[n+]2nc(N)c3ccccc3c2n1 | > 10 µM | IC50 (HEPG2TOX_HILL_SLOPE 2.74, HEPG2TOX_R_SQUARED 0.909, PBLUC_HILL_SLOPE 12.1, PBLUC_R_SQUARED 0.242, read-out: LUCIFERASE INFECTION ASSAY - IC50): 9.17 µM
39 | Cc1ncc(CC(=O)n2cc(C(=O)c3cc(F)ccc3O)cn2)s1 | > 10 µM | IC50 (PBLUC_HILL_SLOPE 0.716, PBLUC_R_SQUARED 0.277, read-out: LUCIFERASE INFECTION ASSAY - IC50): > 10 µM
